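Each compound was tested at five concentrations against cells in 96-well plates for 48 hours. GI50 marks 50% less growth.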 Active and inactive are the calls of the source. Cut-off read from the data, not from the text of the source: active = GI50 up to about 1.1 µM and inactive = higher.
Tests used:
Assay in all cases: NCI anticancer screen, dose series, 48 h
[1] = system: 786-0
[2] = system: CCRF-CEM
[3] = system: DU-145
[4] = system: HCC 2998
[5] = system: HOP-62
[6] = system: HOP-92
[7] = system: Hs-578T
[8] = system: KM12
[9] = system: MDA-MB-231
[10] = system: MOLT-4
[11] = system: NCI-H226
[12] = system: OVCAR-3
[13] = system: OVCAR-4
[14] = system: SF-268
[15] = system: SF-295
[16] = system: SK-MEL-28
[17] = system: SN12C
[18] = system: SR
[19] = system: SW-620
[20] = system: A498

Measured: GI50

Cc1cc2c(c(C(=O)NCC(=O)O)c1)Oc1c(cc(C)cc1C(=O)NCC(=O)O)S2
inactive: [1] > 100 µM | [2] > 100 µM | [3] > 100 µM | [4] > 100 µM | [5] > 100 µM | [6] > 100 µM | [7] > 100 µM | [8] > 100 µM | [9] > 100 µM | [10] > 100 µM | [11] > 100 µM | [12] > 100 µM | [13] > 100 µM | [14] > 100 µM | [15] > 100 µM | [16] > 100 µM | [17] > 100 µM | [18] > 100 µM | [19] > 100 µM

COc1cc(CNc2nc3ccccc3nc2C(=O)O)cc(OC)c1OC
inactive: [1] > 100 µM | [20] > 100 µM | [2] > 100 µM | [3] > 100 µM | [4] > 100 µM | [5] > 100 µM | [6] 65 µM | [7] 42.1 µM | [8] > 100 µM | [9] > 100 µM | [10] > 100 µM | [11] > 100 µM | [12] > 100 µM | [13] > 100 µM | [14] > 100 µM | [15] > 100 µM | [16] > 100 µM | [17] 83 µM | [18] 99.1 µM | [19] > 100 µM

Cc1cc(N(CCC#N)CCC#N)ccc1C(/N=N/c1ccc(C(=O)O)cc1)=N\NC(=O)c1ccccc1
inactive: [1] 41.3 µM | [20] 22.3 µM | [2] 30.4 µM | [3] 71.4 µM | [4] 17.3 µM | [5] 32.4 µM | [7] 14.4 µM | [8] 18.2 µM | [9] 57.8 µM | [10] 47.1 µM | [11] 40.9 µM | [12] > 10 µM | [13] > 100 µM | [14] 53.8 µM | [15] 23.9 µM | [17] 47.3 µM | [18] 6.08 µM

COc1cc2c(cc1C)NC(=O)/C2=C/c1c(Cl)[nH]c2ccccc12
inactive: [1] 6.21 µM | [20] 4.57 µM | [2] 3.56 µM | [3] 13.3 µM | [4] 3.89 µM | [5] 3.28 µM | [6] 11.2 µM | [7] 3.26 µM | [8] 3.1 µM | [9] 3.95 µM | [10] 4.05 µM | [12] 2.26 µM | [14] 4.22 µM | [15] 1.77 µM | [16] 7 µM | [17] 5.3 µM | [18] 3.55 µM | [19] 4.56 µM

From ChEMBL document CHEMBL1201862, “PubChem BioAssay data set” (2004)
